Structures can show the parent of a compound that is named as a salt.
Assays:
[1] = test system: T-47D; assay: Caspase cascade activation (caspase activity ratio and potency), fluorogenic N-(Ac-DEVD)-N'-ethoxycarbonyl-R110 substrate; format: cell-based, Human
Protocol: Human breast cancer cell lines T-47D and DLD-1 were grown according to media component mixtures designated by American Type Culture Collection+10% FCS (Invitrogen Corporation), in a 5% CO2−95% humidity incubator at 37° C. T-47D and DLD-1 cells were maintained at a cell density between 50 and 80% confluency at a cell density of 0.1 to 0.6×10^6 cells/mL. Cells were harvested at 600×g and resuspended at 0.65×10^6 cells/mL into appropriate media+10% FCS. An aliquot of 22.5 μL of cells was added to a well of a 384-well microtiter plate containing 2.5 μL of a 10% DMSO in RPMI-1640 media solution containing 0.16 to 100 μM of (2-chloro-quinazolin-4-yl)-(4-methoxy-phenyl)-methyl-amine or other test compound (0.016 to 10 μM final). An aliquot of 22.5 μL of cells was added to a well of a 384-well microtiter plate containing 2.5 μL of a 10% DMSO in RPMI-1640 media solution without test compound as the control sample. […] […] The samples were mixed by agitation and incubated at room temperature. Using a fluorescent plate reader (Model SPECTRAfluor Plus, Tecan), an initial reading (T=0) was made approximately 1-2 min after addition of the substrate solution, employing excitation at 485 nm and emission at 530 nm, to determine the background fluorescence of the control sample. After the 3 h incubation, the samples were read for fluorescence as above (T=3 h).
The Relative Fluorescence Unit values (RFU) were used to calculate the sample readings as follows: RFU(T=3h)−Control RFU(T=0)=Net RFU(T=3h)
The activity of caspase cascade activation was determined by the ratio of the net RFU value for (2-chloro-quinazolin-4-yl)-(4-methoxy-phenyl)-methyl-amine or other test compounds to that of control samples. The EC50 (nM) was determined by a sigmoidal dose-response calculation (Prism 3.0, GraphPad Software Inc.).

[2] = Determination of brain/plasma AUC ratio after tail vein injection; format: in vivo; conditions: mouse, intravenous, 0.0875 mg/mouse, mice, 0.10 mL of 0.875 mg/mL, AUC0-∞ from median plasma and brain concentrations
Protocol: For each test compound, forty five mice were injected via the tail vein with 0.10 mL of a 0.875 mg/mL solution of test compound dissolved in a formulation of 5% Cremophor, 5% Ethanol, and 90% D5W, or a formulation variation thereof. Five mice at each collection time point of approximately 0.05, 0.25, 0.50, 1.00, 2.00, 4.00, 8.00, 12.0 and 24.0 hours post dose were euthanized by halothane inhalation. Approximately 0.30 to 1.00 mL of blood from each animal was collected via cardiac puncture into tubes containing EDTA. Immediately after exsanguination, the whole brain from each animal was removed. The plasma and whole brain samples were frozen (˜20° C.) separately until analysis. Plasma and brain samples were allowed to thaw at room temperature on the day of sample analysis. Prior to homogenization, the brains were weighed and three volumes of sterile water were added. Plasma and homogenized brain samples were extracted using a protein precipitation and filtration method. Briefly, 0.20 mL acetonitrile was added to 0.10 mL of sample in a Varian Captiva 20 μm filtration plate. A vacuum was applied to the plate and filtrates were collected. Filtrates were injected onto LC-MS/MS ABI2000 QTrap LC-MS/MS equipped with a reverse phase liquid chromatography inlet. Peak areas of the m/z product ions of the test compounds were measured against the peak are of the m/z internal standard production. The range of quantitation for the assay was between 1.00 and 1000 ng/mL for both analytes.
Pharmacokinetic parameters (PK) for the test compounds were estimated on median plasma and brain concentrations using non-compartmental analysis in WinNonlin (Pharsight Corp., Mountain View, Calif.). The validation of this software program is reported in MPI-REP-PA-03.00. All values below the quantitation limit (BQL) of 1.00 ng/mL were excluded from PK analysis. The areas under the concentration-time curve (AUC0-∞) were calculated using a linear/log trapezoidal method.

Kp [2]	Compound	Caspase activity Ratio (net RFU of test compound to control) ([1]; T-47D (24 hr))	Caspase activity Ratio (net RFU of test compound to control) ([1]; T-47D (48 hr))
6.14	COc1ccc(N(C)c2nc(OC)nc3ccccc23)cc1 [Example 11, (2-methoxy-quinazolin-4-yl)-(4-methoxyphenyl)-methylamine]	–	–
9.16	COc1ccc(N(C)c2ccnc3ccccc23)cc1 [Example 17, (4-Methoxy-phenyl)-methyl-(quinolin-4-yl)-amine]	7.2	12.5
16.1	Cc1nc(N(C)c2ccc(N(C)C)cc2)c2ccccc2n1 [Example 35, (4-Dimethylamino-phenyl)-(2-methyl-quinazolin-4-yl)-methyl-amine]	8.5	–
6.44	CNc1nc(N(C)c2ccc(OC)cc2)c2ccccc2n1 [Example 39, (2-Methylamino-quinazolin-4-yl)-(4-methoxy-phenyl)-methyl-amine]	8.2	–
10	CNc1nc(N(C)c2ccc(OC)nc2)c2ccccc2n1 [Example 40, (2-Methylamino-quinazolin-4-yl)-(6-methoxy-pyridin-3-yl)-methyl-amine]	10	–
14.1	CNc1ccc(N(C)c2nc(C)nc3ccccc23)cc1 [Example 43, (2-Methyl-quinazolin-4-yl)-(4-methylamino-phenyl)-methylamine]	3.4	–
–	Cc1nc(N(C)c2ccc(N(C)C)nc2)c2ccccc2n1 [Example 50, (2-Dimethylamino-pyridine-5-yl)-(2-methyl-quinazolin-4-yl)-methylamine]	9.0	–
23.3	COc1ccc(N(C)c2nc(N(C)C(C)=O)nc3ccccc23)cc1 [Example 51, (4-Methoxy-phenyl)-(2-N-methylacetamido-quinazolin-4-yl)-methylamine]	4.0	–
–	COc1ccc(N(C)c2nc(C)nc3ccc(N(C)C)cc23)cc1 [Example 52, (6-Dimethylamino-2-methyl-quinazolin-4-yl)-(4-methoxy-phenyl)-methylamine]	6.4	–
–	CN(c1ccc([N+](=O)[O-])cc1)c1nc(Cl)nc2ccccc12 [Example 54, (2-Chloro-quinazolin-4-yl)-(4-nitro-phenyl)-methyl-amine]	7.1	–
–	CN(c1ccccc1)c1nc(Cl)nc2ccccc12 [Example 55, (2-Chloro-quinazolin-4-yl)-phenyl-methyl-amine]	6.7	–
–	COc1ccc(OC)c(N(C)c2nc(Cl)nc3ccccc23)c1 [Example 56, (2-Chloro-quinazolin-4-yl)-(2,5-dimethoxy-phenyl)-methyl-amine]	8.6	14.6
–	COc1ccccc1N(C)c1nc(Cl)nc2ccccc12 [Example 57, (2-Chloro-quinazolin-4-yl)-(2-methoxy-phenyl)-methyl-amine]	–	14.3
–	CN(c1ccc(O)cc1)c1nc(Cl)nc2ccccc12 [Example 58, (2-Chloro-quinazolin-4-yl)-(4-hydroxyphenyl)-methylamine]	–	12.5
–	COc1ccc(N(C)c2nc(Cl)nc3cc(Cl)ccc23)cc1 [Example 59, (2,7-Dichloro-quinazolin-4-yl)-(4-methoxy-phenyl)-methyl-amine]	–	12.7
–	COc1ccc(N(C)c2nc(Cl)nc3cc(C)ccc23)cc1 [Example 60, (2-Chloro-7-methyl-quinazolin-4-yl)-(4-methoxy-phenyl)-methyl-amine]	–	6.2

Compound	Kp [2]	Caspase activity Ratio (net RFU of test compound to control) ([1]; T-47D (24 hr))	Caspase activity Ratio (net RFU of test compound to control) ([1]; T-47D (48 hr))
COc1ccc(N(C)c2nc(Cl)nc3ccccc23)cc1 [Example 1, (2-Chloro-quinazolin-4-yl)-(4-methoxy-phenyl)-methyl-amine]	30	8.7	–
COc1ccc(N(C)c2nc(C)nc3ccccc23)cc1 [Example 21, (4-Methoxy-phenyl)-methyl-(2-methyl-quinazolin-4-yl)-amine hydrochloride]	19.7	9.0	7.4
COc1ccc(N(C)c2nc(C)nc3ccccc23)cn1 [Example 33, (2-Methyl-quinazolin-4-yl)-(6-methoxy-pyridin-3-yl)-methyl-amine]	5.82	–	–
